Measured values reported in US12065404B2, “C4-carboxylic acid-substituted tryptamine derivatives and methods of using” (priority 2022, dated 2024).
“And” between values parts separate entries of the source, which are not always exact repeats. Equal values may be shown once. “Also recorded” adds a separate entry of the source.

Columns and labels:
[1] = biological target: T1, neuronal 5-HT2A receptor (5-HT2AR) (Mus musculus, UniProt P35363); test: Drug-induced Head Twitch Response (HTR) in mice; format: in vivo, C57BL/6-Elite mice; settings: 1 mg/kg i.p., 15-to-30-minute window post-drug, relative to vehicle-treated control mice
T1 construct: HTR was measured in mice treated with a control and test compounds; tissue Charles River; host or cells: live C57BL/6-Elite mice (neuronal receptor)

[2] = biological target: T2, 5-HT1A receptor (Homo sapiens, UniProt P08908); test: cAMP-Glo assay of 5-HT1A receptor modulation, +5-HT1A (CHO-K1/5-HT1A/Ga15) vs -5-HT1A (CHO-K1/Ga15) cells; format: cell-based; set-up: dose or concentration left out as unconfirmed; settings: +5-HT1A vs -5-HT1A cell cultures stimulated with forskolin, increasing ligand concentrations
T2 construct: host or cells: CHO-K1 (co-expressing Ga15)
T2 sequence (P08908 1-422): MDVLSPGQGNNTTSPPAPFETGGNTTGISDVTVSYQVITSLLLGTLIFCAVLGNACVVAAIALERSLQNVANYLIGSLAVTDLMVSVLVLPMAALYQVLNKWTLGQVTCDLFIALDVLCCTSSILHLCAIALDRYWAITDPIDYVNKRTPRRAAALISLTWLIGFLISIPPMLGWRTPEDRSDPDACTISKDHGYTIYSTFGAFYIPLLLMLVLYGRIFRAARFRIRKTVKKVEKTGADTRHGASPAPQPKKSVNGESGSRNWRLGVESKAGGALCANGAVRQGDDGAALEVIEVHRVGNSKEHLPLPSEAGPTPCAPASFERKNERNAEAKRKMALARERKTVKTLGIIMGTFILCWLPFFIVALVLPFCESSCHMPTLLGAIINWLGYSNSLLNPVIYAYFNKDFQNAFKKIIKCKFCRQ

[3] = biological target: GABAA (Homo sapiens, UniProt P14867+P18507+P47870); format: cell-based; settings: ion channel
[4] = Mouse pharmacokinetic (PK) study, parent compound and psilocin metabolite in plasma; format: in vivo, C57Bl/6 mice
Description: Briefly, the procedure was as follows. […] 19, 2022.

[5] = administered compound itself in plasma, 1 mg/kg i.v., individual animals, 1 mg/kg

Sequence of GABAA (P14867 28-456): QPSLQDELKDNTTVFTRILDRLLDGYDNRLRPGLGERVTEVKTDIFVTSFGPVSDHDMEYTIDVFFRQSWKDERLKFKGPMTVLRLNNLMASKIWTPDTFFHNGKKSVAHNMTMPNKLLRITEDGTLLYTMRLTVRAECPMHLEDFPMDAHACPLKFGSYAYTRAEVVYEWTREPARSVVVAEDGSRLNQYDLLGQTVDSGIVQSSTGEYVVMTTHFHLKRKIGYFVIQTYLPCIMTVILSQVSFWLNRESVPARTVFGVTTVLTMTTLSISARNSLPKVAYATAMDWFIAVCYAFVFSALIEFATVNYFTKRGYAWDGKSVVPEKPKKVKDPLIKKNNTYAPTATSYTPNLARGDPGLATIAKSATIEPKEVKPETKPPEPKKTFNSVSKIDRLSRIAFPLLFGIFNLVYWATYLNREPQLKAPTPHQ
Sequence of GABAA (P47870 26-512): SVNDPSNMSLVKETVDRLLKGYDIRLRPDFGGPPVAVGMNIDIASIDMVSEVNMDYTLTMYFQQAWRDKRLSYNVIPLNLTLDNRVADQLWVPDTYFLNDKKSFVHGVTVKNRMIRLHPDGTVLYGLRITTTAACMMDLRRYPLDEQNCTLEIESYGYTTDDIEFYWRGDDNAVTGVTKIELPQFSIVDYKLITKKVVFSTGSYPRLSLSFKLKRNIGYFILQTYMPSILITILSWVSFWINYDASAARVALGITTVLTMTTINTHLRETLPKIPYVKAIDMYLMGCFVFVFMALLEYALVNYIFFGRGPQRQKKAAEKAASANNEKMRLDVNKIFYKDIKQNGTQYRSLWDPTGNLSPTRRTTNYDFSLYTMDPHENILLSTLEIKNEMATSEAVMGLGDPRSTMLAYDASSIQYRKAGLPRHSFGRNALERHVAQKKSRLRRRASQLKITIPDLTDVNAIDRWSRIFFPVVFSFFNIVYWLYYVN
Sequence of GABAA (P18507 40-475): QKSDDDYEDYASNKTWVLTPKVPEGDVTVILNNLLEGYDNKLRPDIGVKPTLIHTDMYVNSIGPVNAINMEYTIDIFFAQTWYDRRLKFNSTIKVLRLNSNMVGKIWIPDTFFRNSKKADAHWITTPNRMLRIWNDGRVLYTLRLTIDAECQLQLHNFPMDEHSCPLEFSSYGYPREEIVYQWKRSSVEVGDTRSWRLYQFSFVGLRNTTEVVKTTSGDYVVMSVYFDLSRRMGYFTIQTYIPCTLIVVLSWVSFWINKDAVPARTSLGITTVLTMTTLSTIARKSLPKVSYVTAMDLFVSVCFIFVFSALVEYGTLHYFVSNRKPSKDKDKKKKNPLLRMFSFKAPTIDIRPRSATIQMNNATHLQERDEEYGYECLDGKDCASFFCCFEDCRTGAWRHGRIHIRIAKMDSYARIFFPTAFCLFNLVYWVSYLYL
T1 sequence (P35363 whole entry): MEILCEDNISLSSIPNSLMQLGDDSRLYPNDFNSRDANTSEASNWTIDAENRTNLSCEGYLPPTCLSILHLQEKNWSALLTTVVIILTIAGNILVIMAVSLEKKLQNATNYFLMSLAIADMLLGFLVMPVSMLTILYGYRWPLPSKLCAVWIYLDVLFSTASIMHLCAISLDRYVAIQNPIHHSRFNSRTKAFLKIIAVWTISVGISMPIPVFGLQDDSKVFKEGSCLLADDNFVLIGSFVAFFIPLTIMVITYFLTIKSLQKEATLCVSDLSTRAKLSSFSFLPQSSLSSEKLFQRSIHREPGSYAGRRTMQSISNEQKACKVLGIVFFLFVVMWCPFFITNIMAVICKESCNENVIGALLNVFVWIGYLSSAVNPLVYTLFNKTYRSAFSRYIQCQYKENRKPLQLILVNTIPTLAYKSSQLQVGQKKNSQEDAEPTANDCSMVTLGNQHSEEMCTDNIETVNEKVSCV

CN(C)CCc1c[nH]c2cccc(OC(=O)c3cccc4c3OCCO4)c12 [C(XX)]
Incidences of Head Twitch Response (HTR) [1]: Elevated incidences of HTR | 5-HT1A receptor modulation (reduction of cAMP levels) [2]: significant receptor modulation | IC50 ([3]; blocker (BL)): > 100 µM | EC50 ([3]; opener (OP)): > 100 µM | Plasma concentration of C(XX) ([4]; 1 mg/kg i.v. C(XX), 5 min, individual animals): 152 ng/mL and 105 ng/mL | Plasma concentration of C(XX) ([4]; 1 mg/kg i.v. C(XX), 0.25 h, individual animals): 84.7 ng/mL and 60.3 ng/mL | Plasma concentration of C(XX) ([4]; 1 mg/kg i.v. C(XX), 0.5 h, individual animals): 37.9 ng/mL and 32.1 ng/mL | Plasma concentration of C(XX) ([4]; 1 mg/kg i.v. C(XX), 1 h, individual animals): 8.13 ng/mL and 8.22 ng/mL | Plasma concentration of C(XX) ([4]; 1 mg/kg i.v. C(XX), 2 h, individual animals): 1.03 ng/mL and 1.14 ng/mL | Plasma concentration of C(XX) ([4]; 1 mg/kg i.v. C(XX), 4 h, individual animals): 0.137 ng/mL and 0.148 ng/mL | Plasma concentration of C(XX) ([4]; 1 mg/kg i.v. C(XX), 6 h, individual animals): BLQ (BLQ denotes below the lower limit of quantitation (0.25 ng/mL).) | Plasma concentration of psilocin ([4]; 1 mg/kg i.v. C(XX), 8 h, animals M49-M51): BLQ (BLQ denotes below the lower limit of quantitation (0.5 ng/mL).) | Plasma concentration of C(XX) ([4]; 1 mg/kg i.v. C(XX), 8 h, individual animals): BLQ (BLQ denotes below the lower limit of quantitation (0.25 ng/mL).) and No (2×) | Plasma concentration of C(XX) ([4]; 1 mg/kg oral C(XX), 0.25 h, individual animals): 0.459 ng/mL and 0.648 ng/mL | Plasma concentration of C(XX) ([4]; 1 mg/kg oral C(XX), 0.5 h, individual animals): 0.509 ng/mL and 0.648 ng/mL | Plasma concentration of C(XX) ([4]; 1 mg/kg oral C(XX), 1 h, individual animals): 0.286 ng/mL and 0.199 ng/mL | Plasma concentration of C(XX) ([4]; 1 mg/kg oral C(XX), 2 h, individual animals): BLQ (BLQ denotes below the lower limit of quantitation (0.25 ng/mL).) | Plasma concentration of C(XX) ([4]; 1 mg/kg oral C(XX), 4 h, individual animals): BLQ (BLQ denotes below the lower limit of quantitation (0.25 ng/mL).) | Plasma concentration of C(XX) ([4]; 1 mg/kg oral C(XX), 6 h, individual animals): No Peak; also recorded: BLQ (BLQ denotes below the lower limit of quantitation (0.25 ng/mL).) | Plasma concentration of C(XX) ([4]; 1 mg/kg oral C(XX), 8 h, individual animals): No Peak; also recorded: BLQ (BLQ denotes below the lower limit of quantitation (0.25 ng/mL).) | Plasma concentration of psilocin ([4]; 1 mg/kg oral C(XX), 24 h, animals M52-M54): BLQ (BLQ denotes below the lower limit of quantitation (0.5 ng/mL).) | Plasma concentration of C(XX) ([4]; 1 mg/kg oral C(XX), 24 h, individual animals): No Peak | Plasma concentration of C(XX) ([4]; 3 mg/kg oral C(XX), 0.25 h, individual animals): 1.72 ng/mL and 1.93 ng/mL | Plasma concentration of C(XX) ([4]; 3 mg/kg oral C(XX), 0.5 h, individual animals): 1.13 ng/mL and 1.43 ng/mL | Plasma concentration of C(XX) ([4]; 3 mg/kg oral C(XX), 1 h, individual animals): 0.752 ng/mL and 0.535 ng/mL | Plasma concentration of C(XX) ([4]; 3 mg/kg oral C(XX), 2 h, individual animals): 0.244 ng/mL and 0.156 ng/mL | Plasma concentration of C(XX) ([4]; 3 mg/kg oral C(XX), 4 h, individual animals): No Peak; also recorded: BLQ (BLQ denotes below the lower limit of quantitation (0.25 ng/mL).) | Plasma concentration of C(XX) ([4]; 3 mg/kg oral C(XX), 6 h, individual animals): No Peak; also recorded: BLQ (BLQ denotes below the lower limit of quantitation (0.25 ng/mL).) | Plasma concentration of C(XX) ([4]; 3 mg/kg oral C(XX), 8 h, individual animals): No Peak; also recorded: BLQ (BLQ denotes below the lower limit of quantitation (0.25 ng/mL).) | Plasma concentration of psilocin ([4]; 3 mg/kg oral C(XX), 24 h, animals M55-M57): BLQ (BLQ denotes below the lower limit of quantitation (0.5 ng/mL).) | Plasma concentration of C(XX) ([4]; 3 mg/kg oral C(XX), 24 h, individual animals): No Peak | F(%) ([4]; 3 mg/kg oral, no footnote on basis (Table 36B), individual animals): 1.08% and 0.962% | Plasma concentration of C(XX) ([4]; 10 mg/kg oral C(XX), 0.25 h, individual animals): 2.99 ng/mL and 9.12 ng/mL and 10.3 ng/mL | Plasma concentration of C(XX) ([4]; 10 mg/kg oral C(XX), 0.5 h, individual animals): 2.79 ng/mL and 3.87 ng/mL and 5.79 ng/mL | Plasma concentration of C(XX) ([4]; 10 mg/kg oral C(XX), 1 h, individual animals): 1.69 ng/mL and 2.74 ng/mL | Plasma concentration of C(XX) ([4]; 10 mg/kg oral C(XX), 2 h, individual animals): 0.707 ng/mL and 0.533 ng/mL and 1.08 ng/mL | Plasma concentration of C(XX) ([4]; 10 mg/kg oral C(XX), 4 h, individual animals): BLQ (BLQ denotes below the lower limit of quantitation (0.25 ng/mL).) and 0.302 ng/mL | Plasma concentration of C(XX) ([4]; 10 mg/kg oral C(XX), 6 h, individual animals): 0.524 ng/mL and BLQ (BLQ denotes below the lower limit of quantitation (0.25 ng/mL).) and 0.196 ng/mL | Plasma concentration of C(XX) ([4]; 10 mg/kg oral C(XX), 8 h, individual animals): BLQ (BLQ denotes below the lower limit of quantitation (0.25 ng/mL).) and 0.185 ng/mL | Plasma concentration of psilocin ([4]; 10 mg/kg oral C(XX), 24 h, animals M58-M60): BLQ (BLQ denotes below the lower limit of quantitation (0.5 ng/mL).) | Plasma concentration of C(XX) ([4]; 10 mg/kg oral C(XX), 24 h, individual animals): No Peak | AUC0-inf [4, 5]: 62.5 ng·h/mL and 48.1 ng·h/mL | AUC0-inf/Dose [4, 5]: 48.3 kg·ng·h/mL/mg and 62.5 kg·ng·h/mL/mg and 48.1 kg·ng·h/mL/mg | AUC0-tlast [4, 5]: 62.4 ng·h/mL and 48.0 ng·h/mL | AUC0-tlast/Dose [4, 5]: 48.1 kg·ng·h/mL/mg and 62.4 kg·ng·h/mL/mg and 48.0 kg·ng·h/mL/mg | Apparent t1/2 [4, 5]: 31.7 min and 32.2 min
